From patent publication US5264427A, “20-substituted pregnene derivatives and their use as androgen synthesis inhibitors” (priority 1992, dated 1993)
Entries after “also recorded” stand apart in the source; their conditions may differ. Read-outs that look alike come from different tables or passages of the source.

What was measured:
[1] = target: T1, 17(alpha)-hydroxylase (Rattus norvegicus, UniProt P11715); assay: 17(alpha)-hydroxylase assay, rat testicular microsomes (Example 1, Table 1); type: biochemical
T1 construct: approximately 1 mg rat testicular microsomal protein in 450 microliters phosphate buffer; from tissue; host or cells: testes of adult male Sprague-Dawley rats (Charles River), microsomal fraction
T1 sequence (P11715 1-507): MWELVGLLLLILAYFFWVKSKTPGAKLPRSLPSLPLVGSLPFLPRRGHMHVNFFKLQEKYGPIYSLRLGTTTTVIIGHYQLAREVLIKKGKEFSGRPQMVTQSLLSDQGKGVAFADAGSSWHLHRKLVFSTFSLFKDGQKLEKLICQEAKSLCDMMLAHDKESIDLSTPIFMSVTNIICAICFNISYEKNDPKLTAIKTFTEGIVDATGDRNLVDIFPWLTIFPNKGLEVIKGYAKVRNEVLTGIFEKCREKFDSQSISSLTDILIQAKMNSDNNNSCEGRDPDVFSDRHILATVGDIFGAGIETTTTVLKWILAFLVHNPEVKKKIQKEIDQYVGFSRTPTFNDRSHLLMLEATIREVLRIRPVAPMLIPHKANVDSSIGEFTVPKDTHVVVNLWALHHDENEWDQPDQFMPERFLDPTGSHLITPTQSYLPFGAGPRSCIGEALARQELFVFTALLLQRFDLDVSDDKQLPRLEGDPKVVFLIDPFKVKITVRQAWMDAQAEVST
Description: (§1) Testes were obtained from 220°-250g adult male Sprague-Dawley rats (Charles River), immediately frozen in liquid nitrogen and stored at -70° C. After thawing in the ice bath, the testes were minced and homogenized in 0.25M sucrose (1:4 w/v), then centrifuged at 12,000×gfor 30 min and the resulting supernatant centrifuged at 105,000×g for one hour. The supernatant was then decanted and the pellet containing the microsomes was resuspended in 0.1M sodium phosphate buffer (pH 7.4) (2.5g wet weight of tissue/ 2 ml buffer). All the above procedures were performed at 4C. The microsomal fraction was stored at -70C. Just before use, microsomes were diluted to the concentration of 1.25 g wet weight of tissue/10 ml phosphate buffer.
(§2) The incubation was stopped by cooling the mixture in an ice bath and adding 2 ml ether to each incubation tube. The ^3 H-labelled steriods (progesterone P4; 17(alpha)-hydroxyprogesterone 170HP4, androstenedione A and testosterone T, 8,000dpm each) were added as recovery markers and the steroids were extracted with ether (2 ml×3). The ether was evaporated with air. Steroid carriers (P4, 17-0HP4, A and T, 4 micrograms each) were added to the extracts which were then applied to thin layer chromatography (TLC) plates for separation of the steroids. After development for 1.5 hours in hexanes/ethyl acetate, 65:35(v/v), the steroids were located by UV (254 nm) absorption, scraped off and eluted into scintillation vials with ether. After evaporating the ether, the steroids were dissolved in counting cocktail and the radioactivity measured. The recovery of steroids calculated from the ^3 H-labelled markers was between 80 to 90 percent and the enzyme activity was determined from the percentage conversion of [4-C^14 ]-progesterone to 170HP4, A and T.
(§3) The purity of each steroid on the TLC was confirmed by two methods. First, the percent conversion of each compound in a half amount of the extract from one incubation were compared after separation of TLC and HPLC. The HPLC procedure has been described in detail previously. The solvent system used was methanol/acetonitrile/water (15.6:36.4:48). The flow rate was 1 ml/min and pressure 2200 psi, the retention time of these steroids was P4 38.3 min, 170HP4 15.93 min, A 14.33 min, and T 11.43 min, respectively. Secondly, after the first separation by TLC in solvent system A (hexane/ethyl acetate 65:35), the eluted steroids were chromatographed in solvent system B (chloroform/acetonitrile, 85:15).
^1 Incubation of [4^14 Cprogesterone (various concentration,
microsome (approximately 1 mg protein) and NADPH generating system was
carried out at 37 C. under O2 for 30 min. The apparent Km for this

[2] = target: T2, C17,20-lyase (Rattus norvegicus, UniProt P11715); assay: C17,20-lyase assay, rat testicular microsomes (Example 1, Table 1); type: biochemical
T2 construct: approximately 1 mg rat testicular microsomal protein in 450 microliters phosphate buffer; from tissue; host or cells: testes of adult male Sprague-Dawley rats (Charles River), microsomal fraction
T2 sequence (P11715 1-507): T1 sequence (P11715 1-507)
Description: as §1
(§4) C^17,20 -Lyase: The procedure for measurement of the C17,20 -lyase was similar to the procedure for the 17(alpha)-hydroxylase, except that the substrate was 17(alpha)-hydroxy-[[1,2,6,7-^3 H]-progesterone (various concentration, 10^5 dpm) and recovery markers were [4-^14 C]-labelled steroids. Carrier steroids (170HP4, A and T) were also added to locate the product areas on the TLC plates. The enzyme activity was determined from the percent conversion of 17(alpha)-hydroxy-[1,2,6,7-3H]-progesterone to A and T.
as §3, with “The flow rate was 1 ml/min and pressure 2200 psi, the retention time of these steroids was P4 38.3 min, 170HP4 15.93 min, A 14.33 min, and T 11.43 min, respectively.” left out

[3] = tested on: DHT in the prostate; assay: In vivo study: DHT concentration in the prostate of male rats (RIA); design: species or system rat (male Sprague-Dawley); conditions: 50 mg/kg/day sc, 21 days
Description: (§5) A group of 8 adult male Sprague-Dawley rats were injected sc with vehicle (0.3% hydroxypropyl cellulose, HPC) and a group of 8 rats were injected sc with a suspension of the compound I-23 in HPC (50 mg/kg body weight/day) every 24 hours for 21 days. The rats were autopsied at the last day, the ventral prostates and blood samples were collected. The prostate tissues were stored at -70° C. and the sera were separated first by centrifugation at 2,200 rpm, then stored at -15° C. until assayed. The DHT levels in the rat prostates were measured by radioimmunoassay (RIA) using testosterone/dihydrotestosterone RIA kit from Amersham Co. (Illinois). The testosterone levels in the rat sera were measured by using the [^125 I]-testosterone diagnostic kits (ICN Biochemics Inc.). The results obtained were analyzed by using Student t test.
(§6) The 4-pregnen-3-one-20(beta)-aldoxime was also studied for its effect on male rats in vivo. Male rats were daily treated with the compound at the dose of 50 mg/kg body weight injected subcutaneously for 21 days. […] The serum testosterone of these rats was measured as well.

[4] = tested on: serum testosterone; assay: In vivo study: serum testosterone of male rats (RIA); design: species or system rat (male Sprague-Dawley); conditions: 50 mg/kg/day sc, 21 days
Description: as §5, §6

[5] = target: T3, rat testicular 17(alpha)-hydroxylase/C17,20-lyase (Rattus norvegicus, UniProt P11715); assay: Hydroxylase/lyase assay, rat testicular homogenates, [21-14C]progesterone (Example 4, Table 3); type: biochemical; conditions: 0.75 h
T3 construct: rat testicular homogenates (prepared from 220-250g adult male Sprague-Dawley rats); from tissue; host or cells: testes of adult male Sprague-Dawley rats, homogenate
T3 sequence (P11715 1-507): T1 sequence (P11715 1-507)
Description: The assay was performed by incubation of rat testicular homogenates (prepared from 220-250g adult male Sprague-Dawley rats, approx. 3.5 mg protein) with [21-^14 C]progesterone (40uM, 5×10^4 dpm), NADPH generating system and candidate inhibitors in phosphate buffer (pH 7.4, total volume 500ul) under oxygen for 45 min at 37° C. Two ml of choloroform was added to each tube to stop the reaction. The steriods were extracted with chloroform and the aqueous phase was treated with charcoal. The side chain cleavage product [2-^14 C]acetic acid in the aqueous phase was mixed with 3a70B counting cocktail and counted on the Rack Beta II liquid scintillation counter. The enzyme activity was determined from the conversion of progesterone P4 to [2-^14 C]acetic acid.

[6] = target: T4, 17(alpha)-hydroxylase/17,20-lyase enzyme (Rattus norvegicus, UniProt P11715); assay: 17(alpha)-hydroxylase/17,20-lyase inhibition, rat testicular microsomes (Example 1); type: biochemical; conditions: according to Ki values, result in words; listed as 4-pregnen-3-one-20(beta)-aldoxime
T4 sequence (P11715 1-507): T1 sequence (P11715 1-507)
Description: as §1
as §2, with “After development for 1.5 hours in hexanes/ethyl acetate, 65:35(v/v), the steroids were located by UV (254 nm) absorption, scraped off and eluted into scintillation vials with ether.” left out
as §4, with “Carrier steroids (170HP4, A and T) were also added to locate the product areas on the TLC plates.” left out

[7] = target: T5, 17(alpha)-hydroxylase/C17,20-lyase (Rattus norvegicus, UniProt P11715); assay: Hydroxylase/lyase assay, rat testis homogenates, [21-14C]-progesterone side-chain cleavage (Examples 2 and 3, Table 2); type: biochemical; conditions: progesterone 40 microM, 45 min
T5 construct: with rat testis homogenates (2.7 mg protein in 0.5 ml phosphate buffer); from tissue; host or cells: rat testis homogenate
T5 sequence (P11715 1-507): T1 sequence (P11715 1-507)
Description: Compounds I-16 and I-25 were synthesized according to known procedures. The compounds were then assayed for their ability to inhibit the 17(alpha)-hydroxylase/C17,20 -lyase enzyme and the 5(alpha)-reductaseenzyme. The hydroxylase/lyase assay was carried out by incubation of [21-^14 C]-progesterone (40 microM, 70,000 dpm) and candidate inhibitors with rat testis homogenates (2.7 mg protein in 0.5 ml phosphate buffer), NADPH generating system under oxygen for 45 minutes. The enzyme activity was measured according to the conversion of progesterone to the product of C17,20 -side chain cleavage ([2-^14 C]-acetic acid). […] The results were based on the TLC separation.

[8] = in vivo; cited from earlier work
[9] = target: T6, 5(alpha)-reductase (Homo sapiens, UniProt P31213); assay: 5(alpha)-reductase assay, human prostatic (BPH) tissue homogenates (Example 1, Table 1); conditions: result in words
T6 sequence (P31213 1-254): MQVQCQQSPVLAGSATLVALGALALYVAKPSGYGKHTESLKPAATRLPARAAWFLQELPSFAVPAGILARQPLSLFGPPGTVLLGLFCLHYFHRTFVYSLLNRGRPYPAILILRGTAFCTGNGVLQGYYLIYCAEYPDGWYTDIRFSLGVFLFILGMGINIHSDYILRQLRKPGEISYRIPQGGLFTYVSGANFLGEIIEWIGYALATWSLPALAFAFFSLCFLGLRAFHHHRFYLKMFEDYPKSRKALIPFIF
Description: Tissue was homogenized in 0.1M phosphate buffer (60 mg wet weight of tissue/ ml buffer, pH 7.4) at 4C and the homogenates were diluted with an equal volume of buffer before use.
5(alpha)-reductase: [7-^3 H]testosterone (10^6 dpm) was incubated for 30 minutes at 37° C. with the NADPH generating system, homogenate of human prostatic tissue (30mg wet weight of tissue/1 ml buffer) and the candidate inhibitors at concentrations ranging from 0.1-10uM. […] The steroids were extracted with ether and the extracts chromatographed on TLC (chloroform: ether 95:5). […] The steroids were scraped from the plate and radioactivity measured.

## C[C@H](C=NO)[C@H]1CC[C@H]2[C@@H]3CCC4=CC(=O)CC[C@]4(C)[C@H]3CC[C@]12C [Compound I-23, 4-pregnen-3-oxo-20(beta)-carboxaldehyde oxime]
[1]
  Ki: 31.2 µM
[1]; Lineweaver-Burk
  type of inhibition of the hydroxylase: competitive inhibition
[2]
  Ki: 1.07 µM
[2]; FIG. 2, result in words
  potency versus Ketoconazole, C17,20-lyase: more potent than Ketoconazole
[2]; Lineweaver-Burk
  type of inhibition of the lyase: competitive inhibition
[2]; according to the Ki values
  potency relative to ketoconazole for rat testicular C17,20-lyase: approximately 3.5 fold
[3]
  prostatic DHT levels, effect in words: effective in reducing
[4]; n=8, control 4.03±0.64, P<0.005
  serum testosterone: 1.60±0.37 ng/ml serum
[4]; rats
  plasma testosterone concentrations, effect in words: effective in reducing plasma testosterone concentrations
[5]; pH 7.4, read-out: Inhibition of 17(alpha)-hydroxylase/C17,20-lyase (%), [I] = 10 × [S]
  inhibition at 400 µM: 84%
[5]; pH 7.4, read-out: Inhibition of 17(alpha)-hydroxylase/C17,20-lyase (%), [I] = [S]
  inhibition at 40 µM: 39.3%
[6]
  selectivity lyase versus hydroxylase: more specific inhibitor for the lyase than for the hydroxylase; also recorded: preferentially inhibited the lyase rather than the hydroxylase step

## CC(=O)N1CCN(c2ccc(OCC3COC(Cn4ccnc4)(c4ccc(Cl)cc4Cl)O3)cc2)CC1 (stereo not drawn) [Ketoconazole, reference compound]
[1]; rat testicular microsomes, progesterone substrate, 30 min, 37 C, N.I. = no inhibition, read-out: 17(alpha)-hydroxylase Ki
  Ki: 39.5 µM
[2]; rat testicular microsomes, 17(alpha)-hydroxyprogesterone substrate, 30 min, 37 C, N.I. = no inhibition, read-out: C17,20-lyase Ki
  Ki: 3.6 µM
[7]; [I] = 10 × [S]
  % Inhibition of 17(alpha)hydroxylase/lyase, [I] = 10 × [S]: 65.80%
[7]; [I] = [S]
  % Inhibition of 17(alpha)hydroxylase/lyase, [I] = [S]: 31.53%
[8]
  cortisol production and side-effects, in words: reduces cortisol production and has a number of side-effects
[9]
  inhibition of 5(alpha)-reductase in the human prostate: did not inhibit
